# Laboratory results published in PMC3240716 (Journal of medicinal chemistry, 2011).
# Entries after “also recorded” stand apart in the source; their conditions may differ.
# Tests used:
# Hα4β2 nAChRs = Hα4β2 nAChRs (Homo sapiens, UniProt P17787+P43681); experiment: Calcium accumulation assay, HEK ts201 cells stably expressing Hα4β2 nAChRs; format: cell-based; conditions: for effect / activity on Hα4β2 nAChRs: up to 100 µM
# Hα3β4 nAChRs = Hα3β4 nAChRs (Homo sapiens, UniProt P30926+P32297); experiment: Calcium accumulation assay, HEK ts201 cells stably expressing Hα3β4 nAChRs; format: cell-based; conditions: for effect / activity on Hα3β4 nAChRs: up to 100 µM
# Sequence of Hα3β4 nAChRs (P32297 32-505): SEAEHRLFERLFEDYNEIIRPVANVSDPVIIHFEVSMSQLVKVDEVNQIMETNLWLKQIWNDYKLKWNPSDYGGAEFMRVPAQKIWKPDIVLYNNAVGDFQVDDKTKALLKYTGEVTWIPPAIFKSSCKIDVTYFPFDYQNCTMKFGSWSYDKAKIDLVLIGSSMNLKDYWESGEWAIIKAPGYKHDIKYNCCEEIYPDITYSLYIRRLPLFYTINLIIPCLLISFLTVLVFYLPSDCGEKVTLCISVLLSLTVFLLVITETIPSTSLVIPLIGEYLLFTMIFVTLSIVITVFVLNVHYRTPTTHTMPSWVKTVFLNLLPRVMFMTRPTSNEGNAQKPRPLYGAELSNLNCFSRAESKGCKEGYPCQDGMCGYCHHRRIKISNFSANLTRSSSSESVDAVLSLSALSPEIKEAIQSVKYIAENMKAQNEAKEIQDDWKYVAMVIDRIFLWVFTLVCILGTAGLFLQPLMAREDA
# Sequence of Hα3β4 nAChRs (P30926 22-498): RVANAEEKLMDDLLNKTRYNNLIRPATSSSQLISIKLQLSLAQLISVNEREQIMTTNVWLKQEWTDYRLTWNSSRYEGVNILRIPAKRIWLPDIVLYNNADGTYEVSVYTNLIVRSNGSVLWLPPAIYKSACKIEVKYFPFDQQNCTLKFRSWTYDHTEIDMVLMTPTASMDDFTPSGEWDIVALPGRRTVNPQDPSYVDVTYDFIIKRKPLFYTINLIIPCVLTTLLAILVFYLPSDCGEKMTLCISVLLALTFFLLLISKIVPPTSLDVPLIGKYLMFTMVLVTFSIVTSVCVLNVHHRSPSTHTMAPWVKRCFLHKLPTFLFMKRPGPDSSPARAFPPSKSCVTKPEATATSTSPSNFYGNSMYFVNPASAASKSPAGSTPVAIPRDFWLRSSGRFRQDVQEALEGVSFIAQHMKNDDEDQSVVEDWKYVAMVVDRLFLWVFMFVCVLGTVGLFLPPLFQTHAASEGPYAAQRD
# [1] = 30 µM compound, competitive vs non-competitive test, n=4
# [2] = approximate, concentration used in Figure 1
# Sequence of Hα4β2 nAChRs (P43681 29-627 limits assumed): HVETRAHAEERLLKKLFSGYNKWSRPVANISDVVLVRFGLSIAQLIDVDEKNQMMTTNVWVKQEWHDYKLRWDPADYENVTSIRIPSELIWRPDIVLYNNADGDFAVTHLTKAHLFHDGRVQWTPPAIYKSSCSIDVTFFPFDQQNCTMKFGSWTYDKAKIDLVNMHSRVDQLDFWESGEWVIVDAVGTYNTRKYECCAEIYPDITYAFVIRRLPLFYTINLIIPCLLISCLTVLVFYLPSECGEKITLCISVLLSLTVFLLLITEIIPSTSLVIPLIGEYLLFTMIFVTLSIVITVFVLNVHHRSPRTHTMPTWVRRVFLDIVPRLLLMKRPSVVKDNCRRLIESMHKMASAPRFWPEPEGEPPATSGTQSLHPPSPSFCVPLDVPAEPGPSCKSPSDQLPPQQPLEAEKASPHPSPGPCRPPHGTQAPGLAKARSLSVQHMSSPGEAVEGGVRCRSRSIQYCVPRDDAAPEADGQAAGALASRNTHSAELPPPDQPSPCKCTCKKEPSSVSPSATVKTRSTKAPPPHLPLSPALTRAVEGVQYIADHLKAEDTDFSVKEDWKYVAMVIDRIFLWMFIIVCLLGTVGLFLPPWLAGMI
# Sequence of Hα4β2 nAChRs (P17787 26-502): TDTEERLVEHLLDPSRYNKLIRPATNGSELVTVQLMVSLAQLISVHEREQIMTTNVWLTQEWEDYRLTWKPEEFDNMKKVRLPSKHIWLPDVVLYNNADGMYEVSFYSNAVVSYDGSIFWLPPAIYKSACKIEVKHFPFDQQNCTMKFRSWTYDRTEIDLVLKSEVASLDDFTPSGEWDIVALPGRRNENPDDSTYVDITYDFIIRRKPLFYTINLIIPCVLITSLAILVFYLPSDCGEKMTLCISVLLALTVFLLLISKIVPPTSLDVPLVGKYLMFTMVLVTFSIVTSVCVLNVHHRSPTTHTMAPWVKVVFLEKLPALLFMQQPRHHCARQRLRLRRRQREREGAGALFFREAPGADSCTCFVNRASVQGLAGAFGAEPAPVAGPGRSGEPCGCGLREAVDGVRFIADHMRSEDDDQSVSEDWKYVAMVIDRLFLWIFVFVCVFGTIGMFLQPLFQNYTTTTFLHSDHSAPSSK
smiles,measurement,setting,value
"O=C(CN1CCN(S(=O)(=O)c2ccc(F)cc2)CC1)Nc1ccccc1F [Compound 1, N-(2-fluorophenyl)-2-(4-((4-fluorophenyl)sulfonyl)piperazin-1-yl)acetamide]","effect on epibatidine concentration-response, Hα4β2 nAChRs",Hα4β2 nAChRs; [1],reduced the maximum efficacy
same,"IC70, Hα4β2 nAChRs",Hα4β2 nAChRs; [2],~30 µM
same,"effect on epibatidine concentration-response, Hα3β4 nAChRs",Hα3β4 nAChRs; [1],reduced the maximum efficacy
same,"IC70, Hα3β4 nAChRs",Hα3β4 nAChRs; [2],~30 µM
"O=S(=O)(c1ccc(F)cc1)N1CCNCC1 [Compound 3, 1-([4-fluorophenyl]sulfonyl)piperazine]",effect / activity on Hα4β2 nAChRs,Hα4β2 nAChRs,no effect
same,effect / activity on Hα3β4 nAChRs,Hα3β4 nAChRs,no effect
"O=C(CN1CCN(S(=O)(=O)c2ccc(F)cc2)CC1)Nc1ccc2[nH]ncc2c1 [Compound 11, 2-(4-((4-fluorophenyl)sulfonyl)piperazin-1-yl)-N-(1H-indazol-5-yl)acetamide]",change in potency for Hα4β2 nAChRs,Hα4β2 nAChRs; compared to lead compound 1,slight increase
same,fold decrease in potency for Hα3β4 nAChRs,Hα3β4 nAChRs; compared to lead compound 1,3 fold
"O=C(CN1CCN(S(=O)(=O)c2ccc(F)cc2)CC1)Nc1cc[nH]n1 [Compound 12, 2-(4-((4-fluorophenyl)sulfonyl)piperazin-1-yl)-N-(1H-pyrazol-3-yl)acetamide]",change in potency for Hα4β2 nAChRs,Hα4β2 nAChRs; compared to lead compound 1,significant decrease
same,effect / activity on Hα4β2 nAChRs,Hα4β2 nAChRs,abolished activity; also recorded: loss of activity
same,change in potency for Hα3β4 nAChRs,Hα3β4 nAChRs; compared to lead compound 1,significant decrease
same,effect / activity on Hα3β4 nAChRs,Hα3β4 nAChRs,abolished activity; also recorded: loss of activity
"COc1ccc(NC(=O)CN2CCN(S(=O)(=O)c3ccc(F)cc3)CC2)cc1 [Compound 13, 2-(4-((4-fluorophenyl)sulfonyl)piperazin-1-yl)-N-(4-methoxyphenyl)acetamide]",fold decrease in potency for Hα4β2 nAChRs,Hα4β2 nAChRs; compared to lead compound 1,2 fold
same,fold decrease in potency for Hα3β4 nAChRs,Hα3β4 nAChRs; compared to lead compound 1,3 fold
"O=C(CN1CCN(S(=O)(=O)c2ccc(F)cc2)CC1)Nc1ccc(F)cc1 [Compound 14, N-(4-fluorophenyl)-2-(4-((4-fluorophenyl)sulfonyl)-piperazin-1-yl)acetamide]",change in potency for Hα4β2 nAChRs,Hα4β2 nAChRs; compared to lead compound 1,no significant change
same,change in potency for Hα3β4 nAChRs,Hα3β4 nAChRs; compared to lead compound 1,no significant change
"O=C(CN1CCN(S(=O)(=O)c2ccc(F)cc2)CC1)Nc1ccccc1 [Compound 15, 2-(4-((4-fluorophenyl)sulfonyl)piperazin-1-yl)-N-phenylacetamide]",change in potency for Hα4β2 nAChRs,Hα4β2 nAChRs; compared to lead compound 1,no significant change
same,fold decrease in potency for Hα3β4 nAChRs,Hα3β4 nAChRs; compared to lead compound 1,2 fold
"O=C(CN1CCN(S(=O)(=O)c2ccccc2F)CC1)Nc1ccccc1F [Compound 16, N-(2-fluorophenyl)-2-(4-((2-fluorophenyl)sulfonyl)-piperazin-1-yl)acetamide]",change in potency for Hα4β2 nAChRs,Hα4β2 nAChRs; compared to lead compound 1,no significant change
"O=C(CN1CCN(S(=O)(=O)c2cccnc2)CC1)Nc1ccccc1F [Compound 17, N-(2-fluorophenyl)-2-(4-(pyridin-3-ylsulfonyl)piperazin-1-yl)acetamide]",fold decrease in potency for Hα4β2 nAChRs,Hα4β2 nAChRs; compared to lead compound 1,2 fold
same,fold decrease in potency for Hα3β4 nAChRs,Hα3β4 nAChRs; compared to lead compound 1,5 fold
"O=C(CN1CCN(S(=O)(=O)c2ccccc2)CC1)Nc1ccccc1F [Compound 18, N-(2-fluorophenyl)-2-(4-(phenylsulfonyl)piperazin-1-yl)acetamide]",fold increase in potency for Hα4β2 nAChRs,Hα4β2 nAChRs; compared to lead compound 1,2 fold
same,fold increase in potency for Hα3β4 nAChRs,Hα3β4 nAChRs; compared to lead compound 1,2 fold
"COc1ccc(S(=O)(=O)N2CCN(CC(=O)Nc3ccccc3F)CC2)cc1 [Compound 19, N-(2-fluorophenyl)-2-(4-((4-methoxyphenyl)sulfonyl)-piperazin-1-yl)acetamide]",change in potency for Hα4β2 nAChRs,Hα4β2 nAChRs; compared to lead compound 1,no significant change
same,change in potency for Hα3β4 nAChRs,Hα3β4 nAChRs; compared to lead compound 1,no significant change
"O=C(CN1CCN(S(=O)(=O)c2ccccc2F)CC1)Nc1ccc(F)cc1 [Compound 20, N-(4-fluorophenyl)-2-(4-((2-fluorophenyl)sulfonyl)-piperazin-1-yl)acetamide]",change in potency for Hα4β2 nAChRs,Hα4β2 nAChRs; compared to analog 16,no change
same,fold increase in potency for Hα3β4 nAChRs,Hα3β4 nAChRs; compared to analog 16,6 fold
"COc1ccc(NC(=O)CN2CCN(S(=O)(=O)c3ccccc3F)CC2)cc1 [Compound 21, 2-(4-((2-fluorophenyl)sulfonyl)piperazin-1-yl)-N-(4-methoxyphenyl)acetamide]",fold decrease in potency for Hα4β2 nAChRs,Hα4β2 nAChRs; compared to analog 16,2 fold
same,fold increase in potency for Hα3β4 nAChRs,Hα3β4 nAChRs; compared to analog 16,4 fold
"COC(=O)c1ccc(NC(=O)CN2CCN(S(=O)(=O)c3ccccc3F)CC2)cc1 [Compound 22, methyl 4-(2-(4-((2-fluorophenyl)sulfonyl)piperazin-1-yl)acetamido)benzoate]",change in potency for Hα4β2 nAChRs,Hα4β2 nAChRs; compared to analog 16,no significant change
same,fold increase in potency for Hα3β4 nAChRs,Hα3β4 nAChRs; compared to analog 16,8 fold
"O=C(CN1CCN(S(=O)(=O)c2ccccc2F)CC1)Nc1ccc(C(=O)O)cc1 [Compound 23, 4-(2-(4-((2-fluorophenyl)sulfonyl)piperazin-1-yl)acetamido)benzoic acid]",effect / activity on Hα4β2 nAChRs,Hα4β2 nAChRs,loss of activity
same,effect / activity on Hα3β4 nAChRs,Hα3β4 nAChRs,loss of activity
"O=C(CN1CCN(S(=O)(=O)c2ccccc2F)CC1)Nc1cc[nH]n1 [Compound 24, 2-(4-((2-fluorophenyl)sulfonyl)piperazin-1-yl)-N-(1H-pyrazol-3-yl)acetamide]",effect / activity on Hα4β2 nAChRs,Hα4β2 nAChRs,loss of activity
same,effect / activity on Hα3β4 nAChRs,Hα3β4 nAChRs,loss of activity
"COc1ccc(NC(=O)CN2CCN(S(=O)(=O)c3cccnc3)CC2)cc1 [Compound 26, N-(4-methoxyphenyl)-2-(4-(pyridin-3-ylsulfonyl)-piperazin-1-yl)acetamide]",change in potency for Hα4β2 nAChRs,Hα4β2 nAChRs; compared to lead compound 1,significant decrease
same,change in potency for Hα3β4 nAChRs,Hα3β4 nAChRs; compared to lead compound 1,significant decrease
"COc1ccc(S(=O)(=O)N2CCN(CC(=O)Nc3ccc(F)cc3)CC2)cc1 [Compound 28, N-(4-fluorophenyl)-2-(4-((4-methoxyphenyl)sulfonyl)-piperazin-1-yl)acetamide]",fold decrease in potency for Hα4β2 nAChRs,Hα4β2 nAChRs; compared to lead compound 1,2 fold
same,fold decrease in potency for Hα3β4 nAChRs,Hα3β4 nAChRs; compared to lead compound 1,2 fold
